Data on eleven compounds can be found in US20240238423A9, “TETRAHYDROISOQUINOLINE HETEROBIFUNCTIONAL BCL-XL DEGRADERS” (Treeline Biosciences, Inc., priority 2022, published 2024).

The target of this assay is T1, Human BCL-XL protein (N-terminal HiBiT tagged BCL-XL in HT1080 cells) (Homo sapiens, UniProt Q07817).
T1 construct: expressed in transfected cells; host or cells: HT-1080 (ATCC CCL-121), stably transduced with lentivirus pLV-UBC-N-HiBiT-BCL-XL-PGK-puro and selected with puromycin
Kind of assay: HiBiT based degradation assay. The class given is cell-based. Particulars: HT1080 cells expressing HiBiT-BCL-XL, 24 h; for Ymin (24 h): BCL-XL degradation normalized with DMSO control; for DC50: BCL-XL degradation, read-out: EC50 (24 h). The method in brief: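 This HiBiT degradation assay measured loss of BCL-XL in HT1080 cells that stably express an N-terminal HiBiT-BCL-XL fusion delivered by lentivirus. Cells were added to compound-spotted 384-well plates, and luminescence was read on a PHERAstar FSX reader. Signal was expressed relative to DMSO controls, curves were fitted by four-parameter logistic regression, and for hook-shaped curves the Ymin point served as the bottom plateau when calculating EC50.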

T1 sequence (Q07817 whole entry): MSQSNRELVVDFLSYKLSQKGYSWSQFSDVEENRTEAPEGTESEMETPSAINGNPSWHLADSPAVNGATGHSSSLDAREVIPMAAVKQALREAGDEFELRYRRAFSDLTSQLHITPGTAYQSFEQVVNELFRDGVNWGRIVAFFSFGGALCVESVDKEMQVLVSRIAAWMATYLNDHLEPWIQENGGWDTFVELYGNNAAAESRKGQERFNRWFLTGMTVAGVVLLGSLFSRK

For `Cc1c(O[C@H]2CC[C@H](CCC(C)(C)N3CCN(c4cccc5c(C6CCC(=O)NC6=O)nn(C)c45)CC3)CC2)cccc1-c1ccc(N2CCc3cccc(C(=O)Nc4nc5ccccc5s4)c3C2)nc1C(=O)O` (stereo partly shown) [Compound 341a, 6-(8-(benzo[d]thiazol-2-ylcarbamoyl)-3,4-dihydroisoquinolin-2(1H)-yl)-3-(3-(((is, 4r)-4-(3-(4-(3-(2,6-dioxopiperidin-3-yl)-1-methyl-1H-indazol-7-yl)piperazin-1-yl)-3-methylbutyl)cyclohexyl)oxy)-2-methylphenyl)picolinic acid], the “Ymin (24 h)” value is given as “A (Ymin < 50%)” and the DC50 is less than 100 nM.

In the case of `Cc1c(O[C@H]2CC[C@H](CCCC(C)(C)N3CCN(c4cccc5c(C6CCC(=O)NC6=O)nn(C)c45)CC3)CC2)cccc1-c1ccc(N2CCc3cccc(C(=O)Nc4nc5ccccc5s4)c3C2)nc1C(=O)O` (stereo partly shown) [Compound 342a, 6-(8-(benzo[d]thiazol-2-ylcarbamoyl)-3,4-dihydroisoquinolin-2(1H)-yl)-3-(3-(((1s,4r)-4-(4-(4-(3-(2,6-dioxopiperidin-3-yl)-1-methyl-1H-indazol-7-yl)piperazin-1-yl)-4-methylpentyl)cyclohexyl)oxy)-2-methylphenyl)picolinic acid], the “Ymin (24 h)” value is “A (Ymin < 50%)” and the DC50 was less than 100 nM.

`Cc1c(OCCC[C@@H]2CCN(CC(=O)Nc3ccc4c(C5CCC(=O)NC5=O)nn(C)c4c3)[C@H](C)C2)cccc1-c1ccc(N2CCc3cccc(C(=O)Nc4nc5ccccc5s4)c3C2)nc1C(=O)O` (stereo partly drawn) [Compound 343a, 6-(8-(benzo[d]thiazol-2-ylcarbamoyl)-3,4-dihydroisoquinolin-2(1H)-yl)-3-(3-(3-((2R,4R)-1-(2-((3-(2,6-dioxopiperidin-3-yl)-1-methyl-1H-indazol-6-yl)amino)-2-oxoethyl)-2-methylpiperidin-4-yl)propoxy)-2-methylphenyl)picolinic acid]: the “Ymin (24 h)” value is on record as “A (Ymin < 50%)” and the DC50 is less than 100 nM.

In the case of `Cc1c(OCCC[C@H]2CCN(CC(=O)Nc3ccc4c(C5CCC(=O)NC5=O)nn(C)c4c3)[C@H](C)C2)cccc1-c1ccc(N2CCc3cccc(C(=O)Nc4nc5ccccc5s4)c3C2)nc1C(=O)O` (stereo partly drawn) [Compound 343b, 6-[8-(1,3-benzothiazol-2-ylcarbamoyl)-3,4-dihydro-1H-isoquinolin-2-yl]-3-[3-[3-[(2R,4S)-1-[2-[[3-(2,6-dioxo-3-piperidyl)-1-methyl-indazol-6-yl]amino]-2-oxo-ethyl]-2-methyl-4-piperidyl]propoxy]-2-methyl-phenyl]pyridine-2-carboxylic acid], the “Ymin (24 h)” value was “A (Ymin < 50%)” and the DC50 was less than 100 nM.

For `Cc1c(OCCC[C@@H]2CCN(CC(=O)Nc3ccc4c(C5CCC(=O)NC5=O)nn(C)c4c3)[C@@H](C)C2)cccc1-c1ccc(N2CCc3cccc(C(=O)Nc4nc5ccccc5s4)c3C2)nc1C(=O)O` (stereo partly drawn) [Compound 343c, 6-(8-(benzo[d]thiazol-2-ylcarbamoyl)-3,4-dihydroisoquinolin-2(1H)-yl)-3-(3-(3-((2S,4R)-1-(2-((3-(2,6-dioxopiperidin-3-yl)-1-methyl-1H-indazol-6-yl)amino)-2-oxoethyl)-2-methylpiperidin-4-yl)propoxy)-2-methylphenyl)picolinic acid], the “Ymin (24 h)” value was “A (Ymin < 50%)” and the DC50 was less than 100 nM.

In the case of `Cc1c(OCCC[C@H]2CCN(CC(=O)Nc3ccc4c(C5CCC(=O)NC5=O)nn(C)c4c3)[C@@H](C)C2)cccc1-c1ccc(N2CCc3cccc(C(=O)Nc4nc5ccccc5s4)c3C2)nc1C(=O)O` (stereo partly drawn) [Compound 343d, 6-[8-(1,3-benzothiazol-2-ylcarbamoyl)-3,4-dihydro-1H-isoquinolin-2-yl]-3-[3-[3-[(2S,4S)-1-[2-[[3-(2,6-dioxo-3-piperidyl)-1-methyl-indazol-6-yl]amino]-2-oxo-ethyl]-2-methyl-4-piperidyl]propoxy]-2-methyl-phenyl]pyridine-2-carboxylic acid], the “Ymin (24 h)” value is given as “A (Ymin < 50%)” and the DC50 is less than 100 nM.

With `Cc1cc(OCCC[C@H]2CCN(CC(=O)Nc3ccc4c(C5CCC(=O)NC5=O)nn(C)c4c3)[C@@H](C)C2)ccc1-c1ccc(N2CCc3cccc(C(=O)Nc4nc5ccccc5s4)c3C2)nc1C(=O)O` (stereo partly drawn) [Compound 344a, 6-[8-(1,3-benzothiazol-2-ylcarbamoyl)-3,4-dihydro-1H-isoquinolin-2-yl]-3-[4-[3-[(2S,4S)-1-[2-[[3-(2,6-dioxo-3-piperidyl)-1-methyl-indazol-6-yl]amino]-2-oxo-ethyl]-2-methyl-4-piperidyl]propoxy]-2-methyl-phenyl]pyridine-2-carboxylic acid], the “Ymin (24 h)” value is reported as “A (Ymin < 50%)” and the DC50 is less than 100 nM.

As to `Cc1cc(OCCC[C@@H]2CCN(CC(=O)Nc3ccc4c(C5CCC(=O)NC5=O)nn(C)c4c3)[C@H](C)C2)ccc1-c1ccc(N2CCc3cccc(C(=O)Nc4nc5ccccc5s4)c3C2)nc1C(=O)O` (stereo partly drawn) [Compound 344b, 6-[8-(1,3-benzothiazol-2-ylcarbamoyl)-3,4-dihydro-1H-isoquinolin-2-yl]-3-[4-[3-[(2R,4R)-1-[2-[[3-(2,6-dioxo-3-piperidyl)-1-methyl-indazol-6-yl]amino]-2-oxo-ethyl]-2-methyl-4-piperidyl]propoxy]-2-methyl-phenyl]pyridine-2-carboxylic acid], the “Ymin (24 h)” value is reported as “A (Ymin < 50%)” and the DC50 is less than 100 nM.

For `Cc1cc(OCCC[C@H]2CCN(CC(=O)Nc3ccc4c(C5CCC(=O)NC5=O)nn(C)c4c3)[C@H](C)C2)ccc1-c1ccc(N2CCc3cccc(C(=O)Nc4nc5ccccc5s4)c3C2)nc1C(=O)O` (stereo partly drawn) [Compound 344c, 6-[8-(1,3-benzothiazol-2-ylcarbamoyl)-3,4-dihydro-1H-isoquinolin-2-yl]-3-[4-[3-[(2R,4S)-1-[2-[[3-(2,6-dioxo-3-piperidyl)-1-methyl-indazol-6-yl]amino]-2-oxo-ethyl]-2-methyl-4-piperidyl]propoxy]-2-methyl-phenyl]pyridine-2-carboxylic acid], the “Ymin (24 h)” value is on record as “A (Ymin < 50%)” and the DC50 was less than 100 nM.

Consider `Cc1cc(OCCC[C@@H]2CCN(CC(=O)Nc3ccc4c(C5CCC(=O)NC5=O)nn(C)c4c3)[C@@H](C)C2)ccc1-c1ccc(N2CCc3cccc(C(=O)Nc4nc5ccccc5s4)c3C2)nc1C(=O)O` (stereo partly drawn) [Compound 344d, 6-(8-(benzo[d]thiazol-2-ylcarbamoyl)-3,4-dihydroisoquinolin-2(1H)-yl)-3-(4-(3-((2S,4R)-1-(2-((3-(2,6-dioxopiperidin-3-yl)-1-methyl-1H-indazol-6-yl)amino)-2-oxoethyl)-2-methylpiperidin-4-yl)propoxy)-2-methylphenyl)picolinic acid], for which the “Ymin (24 h)” value is given as “A (Ymin < 50%)” and the DC50 is less than 100 nM.

For `Cc1c(O[C@H]2CC[C@H](CCCCN3CCN(c4cccc5c(C6CCC(=O)NC6=O)nn(C)c45)C[C@H]3C)CC2)cccc1-c1ccc(N2CCc3cccc(C(=O)Nc4nc5ccccc5s4)c3C2)nc1C(=O)O` (stereo partly drawn) [Compound 345a, 6-(8-(benzo[d]thiazol-2-ylcarbamoyl)-3,4-dihydroisoquinolin-2(1H)-yl)-3-(3-(((1s,4r)-4-(4-((2R)-4-(3-(2,6-dioxopiperidin-3-yl)-1-methyl-1H-indazol-7-yl)-2-methylpiperazin-1-yl)butyl)cyclohexyl)oxy)-2-methylphenyl)picolinic acid], the “Ymin (24 h)” value is “A (Ymin < 50%)” and the DC50 is less than 100 nM.
